Laboratory results published in PubChem BioAssay AID1963959 (Molecular Pharmacology Branch, DTP, NCI, 2024).

Test system: T-47D spheroids with HUVEC/MSC, viability
Test: Anticancer human tumor T-47D cell line growth inhibition [PI3K];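 note: spheroids exposed to agents for seven days before reading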;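 for viability, T/C: percent of DMSO vehicle control luminescence so 100% = untreated growth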
Conditions: for IC50: curve of first compound; for viability, T/C: stronger effect = lower value
In short: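 Targeted small molecules plus PI3K inhibitors, half-log dose series from Cmax (default top 10 microM), were applied to heterotypic spheroids of cancer cells with HUVEC and MSCs. Viability indicated growth inhibition.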

[1] = second compound 0.00316 µM, first compound 0.0316 µM
[2] = second compound 0.00316 µM, first compound 0.1 µM
[3] = second compound 0.00316 µM, first compound 0.316 µM
[4] = second compound 0.00316 µM, first compound 1 µM
[5] = second compound 0.00316 µM, first compound 3.16 µM
[6] = second compound 0.00316 µM, first compound 10 µM
[7] = second compound 0.01 µM, first compound 0.0316 µM
[8] = second compound 0.01 µM, first compound 0.1 µM
[9] = second compound 0.01 µM, first compound 0.316 µM
[10] = second compound 0.01 µM, first compound 1 µM
[11] = second compound 0.01 µM, first compound 3.16 µM
[12] = second compound 0.01 µM, first compound 10 µM
[13] = second compound 0.0316 µM, first compound 0.0316 µM
[14] = second compound 0.0316 µM, first compound 0.1 µM
[15] = second compound 0.0316 µM, first compound 0.316 µM
[16] = second compound 0.0316 µM, first compound 1 µM
[17] = second compound 0.0316 µM, first compound 3.16 µM
[18] = second compound 0.0316 µM, first compound 10 µM
[19] = second compound 0.1 µM, first compound 0.0316 µM
[20] = second compound 0.1 µM, first compound 0.1 µM
[21] = second compound 0.1 µM, first compound 0.316 µM
[22] = second compound 0.1 µM, first compound 1 µM
[23] = second compound 0.1 µM, first compound 3.16 µM
[24] = second compound 0.1 µM, first compound 10 µM
[25] = second compound 0.316 µM, first compound 0.0316 µM
[26] = second compound 0.316 µM, first compound 0.1 µM
[27] = second compound 0.316 µM, first compound 0.316 µM
[28] = second compound 0.316 µM, first compound 1 µM
[29] = second compound 0.316 µM, first compound 3.16 µM
[30] = second compound 0.316 µM, first compound 10 µM
[31] = second compound 1 µM, first compound 0.0316 µM
[32] = second compound 1 µM, first compound 0.1 µM
[33] = second compound 1 µM, first compound 0.316 µM
[34] = second compound 1 µM, first compound 1 µM
[35] = second compound 1 µM, first compound 3.16 µM
[36] = second compound 1 µM, first compound 10 µM

CC1(C)CCC(CN2CCN(c3ccc(C(=O)NS(=O)(=O)c4ccc(NCC5CCOCC5)c([N+](=O)[O-])c4)c(Oc4cnc5[nH]ccc5c4)c3)CC2)=C(c2ccc(Cl)cc2)C1 + COc1c(OCCCN2CCOCC2)ccc2c3n(c(=NC(=O)c4cnc(N)nc4)nc12)CCN3
IC50 (second compound 0.00316 µM): > 10 µM
IC50 (second compound 0.01 µM): > 10 µM
IC50 (second compound 0.0316 µM): > 10 µM
IC50 (second compound 0.1 µM): < 0.0316 µM
IC50 (second compound 0.316 µM): < 0.0316 µM
IC50 (second compound 1 µM): < 0.0316 µM
viability, T/C [1]: 117%
viability, T/C [2]: 80.5%
viability, T/C [3]: 122%
viability, T/C [4]: 74%
viability, T/C [5]: 82.4%
viability, T/C [6]: 108%
viability, T/C [7]: 100%
viability, T/C [8]: 69.8%
viability, T/C [9]: 91.5%
viability, T/C [10]: 78.6%
viability, T/C [11]: 80.1%
viability, T/C [12]: 88.1%
viability, T/C [13]: 73%
viability, T/C [14]: 81.8%
viability, T/C [15]: 67.3%
viability, T/C [16]: 69.4%
viability, T/C [17]: 58.5%
viability, T/C [18]: 75.1%
viability, T/C [19]: 43.7%
viability, T/C [20]: 42.3%
viability, T/C [21]: 37.1%
viability, T/C [22]: 38%
viability, T/C [23]: 35.2%
viability, T/C [24]: 41.4%
viability, T/C [25]: 15.6%
viability, T/C [26]: 22.3%
viability, T/C [27]: 17.9%
viability, T/C [28]: 18.1%
viability, T/C [29]: 14.8%
viability, T/C [30]: 16.6%
viability, T/C [31]: 6.44%
viability, T/C [32]: 6.49%
viability, T/C [33]: 6.92%
viability, T/C [34]: 7.19%
viability, T/C [35]: 4.62%
viability, T/C [36]: 9.27%

CCCS(=O)(=O)Nc1ccc(F)c(C(=O)c2c[nH]c3ncc(-c4ccc(Cl)cc4)cc23)c1F + COc1c(OCCCN2CCOCC2)ccc2c3n(c(=NC(=O)c4cnc(N)nc4)nc12)CCN3
IC50 (second compound 0.00316 µM): > 10 µM
IC50 (second compound 0.01 µM): > 10 µM
IC50 (second compound 0.0316 µM): > 10 µM
IC50 (second compound 0.1 µM): < 0.0316 µM
IC50 (second compound 0.316 µM): < 0.0316 µM
IC50 (second compound 1 µM): < 0.0316 µM
viability, T/C [1]: 104%
viability, T/C [2]: 86.9%
viability, T/C [3]: 110%
viability, T/C [4]: 94.1%
viability, T/C [5]: 69.5%
viability, T/C [6]: 56.8%
viability, T/C [7]: 98.3%
viability, T/C [8]: 86.2%
viability, T/C [9]: 83.4%
viability, T/C [10]: 92.4%
viability, T/C [11]: 87.4%
viability, T/C [12]: 51.3%
viability, T/C [13]: 66.8%
viability, T/C [14]: 77%
viability, T/C [15]: 73.9%
viability, T/C [16]: 62.5%
viability, T/C [17]: 57.5%
viability, T/C [18]: 52.2%
viability, T/C [19]: 38%
viability, T/C [20]: 42.6%
viability, T/C [21]: 36.4%
viability, T/C [22]: 39.8%
viability, T/C [23]: 31.6%
viability, T/C [24]: 33.7%
viability, T/C [25]: 14.9%
viability, T/C [26]: 22.1%
viability, T/C [27]: 18.3%
viability, T/C [28]: 16.1%
viability, T/C [29]: 18.8%
viability, T/C [30]: 20.5%
viability, T/C [31]: 5.53%
viability, T/C [32]: 9.03%
viability, T/C [33]: 6.15%
viability, T/C [34]: 2.77%
viability, T/C [35]: 4.64%
viability, T/C [36]: 6.82%

C[C@@H](NC(=O)c1ncnc(N)c1Cl)c1ncc(C(=O)Nc2cc(C(F)(F)F)c(Cl)cn2)s1 + COc1c(OCCCN2CCOCC2)ccc2c3n(c(=NC(=O)c4cnc(N)nc4)nc12)CCN3
IC50 (second compound 0.00316 µM): > 10 µM
IC50 (second compound 0.01 µM): > 10 µM
IC50 (second compound 0.0316 µM): > 10 µM
IC50 (second compound 0.1 µM): < 0.0316 µM
IC50 (second compound 0.316 µM): < 0.0316 µM
IC50 (second compound 1 µM): < 0.0316 µM
viability, T/C [1]: 92.7%
viability, T/C [2]: 82.9%
viability, T/C [3]: 97.8%
viability, T/C [4]: 106%
viability, T/C [5]: 77.7%
viability, T/C [6]: 86.6%
viability, T/C [7]: 93.5%
viability, T/C [8]: 90.5%
viability, T/C [9]: 76.2%
viability, T/C [10]: 78.5%
viability, T/C [11]: 86.1%
viability, T/C [12]: 85%
viability, T/C [13]: 66.1%
viability, T/C [14]: 71.2%
viability, T/C [15]: 55.1%
viability, T/C [16]: 61.7%
viability, T/C [17]: 65.4%
viability, T/C [18]: 68.9%
viability, T/C [19]: 40.3%
viability, T/C [20]: 32.9%
viability, T/C [21]: 35.5%
viability, T/C [22]: 38.4%
viability, T/C [23]: 48%
viability, T/C [24]: 38.3%
viability, T/C [25]: 11.7%
viability, T/C [26]: 12.6%
viability, T/C [27]: 17.4%
viability, T/C [28]: 16%
viability, T/C [29]: 14.6%
viability, T/C [30]: 20.3%
viability, T/C [31]: 4.16%
viability, T/C [32]: 8.23%
viability, T/C [33]: 6.02%
viability, T/C [34]: 4.08%
viability, T/C [35]: 4.3%
viability, T/C [36]: 7.55%
